Assay results: patent publication US10662156B2, “Guanidine derivative and medical use thereof” (Toray Industries, Inc., priority 2016, dated 2020)

These compounds were tested against recombinant GST fusion MALT1 (human MALT1) (Homo sapiens (Human), UniProt Q9UDY8) (assay: Evaluation of inhibition of protease activity of MALT1 (cleavage of fluorescent peptide substrate Ac-LRSR-AMC)). Conditions: substrate Ac-LRSR-AMC 20 μmol/L, 30° C. for 80 minutes.
Type: biochemical
How it was run: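 GST-tagged full-length human MALT1 from E. coli ([…]) was preincubated with compound 30 min at room temperature. Buffer: MES, 150 mM NaCl, 10% sucrose, 0.1% CHAPS, 10 mM DTT, 1 mol/L ammonium citrate. Ac-LRSR-AMC (20 μM final) was then cleaved 80 min at 30 °C; AMC fluorescence (Ex 380/Em 460) gain gave % inhibition versus no-enzyme and DMSO controls.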

Sequence of recombinant GST fusion MALT1 (human MALT1) (Q9UDY8 whole entry, the tested form may be a part): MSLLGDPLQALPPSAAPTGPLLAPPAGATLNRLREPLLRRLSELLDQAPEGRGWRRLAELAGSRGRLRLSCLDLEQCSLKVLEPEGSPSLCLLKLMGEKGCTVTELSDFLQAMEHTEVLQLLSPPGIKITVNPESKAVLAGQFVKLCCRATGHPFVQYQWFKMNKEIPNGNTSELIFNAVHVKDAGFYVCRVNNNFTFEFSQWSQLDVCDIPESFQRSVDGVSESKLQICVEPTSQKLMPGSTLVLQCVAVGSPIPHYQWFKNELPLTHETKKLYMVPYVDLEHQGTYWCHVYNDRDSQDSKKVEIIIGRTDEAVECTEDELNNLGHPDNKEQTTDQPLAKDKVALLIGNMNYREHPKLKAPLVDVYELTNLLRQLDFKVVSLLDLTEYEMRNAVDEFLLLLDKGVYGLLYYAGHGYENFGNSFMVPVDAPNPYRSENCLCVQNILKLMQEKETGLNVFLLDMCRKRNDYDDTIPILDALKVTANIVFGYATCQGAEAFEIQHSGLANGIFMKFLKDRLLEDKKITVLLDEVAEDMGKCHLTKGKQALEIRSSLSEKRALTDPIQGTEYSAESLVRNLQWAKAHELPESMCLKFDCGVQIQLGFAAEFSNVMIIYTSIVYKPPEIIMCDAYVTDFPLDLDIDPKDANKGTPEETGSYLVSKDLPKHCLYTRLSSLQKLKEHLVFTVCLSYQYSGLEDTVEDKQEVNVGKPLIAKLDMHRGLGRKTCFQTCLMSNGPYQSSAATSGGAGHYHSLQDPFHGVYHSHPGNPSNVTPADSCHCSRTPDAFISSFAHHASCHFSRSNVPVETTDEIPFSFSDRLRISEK

Structure (SMILES)	IC50 [µM]
N/C(=N\C(=O)c1cscn1)NCc1cnc(-c2ccc(Cl)cc2)c(-c2ccc(Cl)cc2)c1 [Compound of Example 83, N-(amino(((5,6-bis(4-chlorophenyl)pyridin-3-yl)methyl)amino)methylene)thiazole-4-carboxamide]	0.942
CCOc1cccc(S(=O)(=O)/N=C(\N)NCc2cnc(-c3ccc(Cl)cc3)c(-c3ccc(Cl)cc3)c2)c1 [Compound of Example 51, N-(amino(((5,6-bis(4-chlorophenyl)pyridin-3-yl)methyl)amino)methylene)-3-ethoxybenzenesulfonamide]	0.185
COc1ccc(-c2cc(CN/C(N)=N/S(=O)(=O)c3ccccc3)cnc2-c2ccc(Cl)cc2)cc1 [Compound of Example 18, N-(Amino(((6-(4-chlorophenyl)-5-(4-methoxyphenyl)pyridin-3-yl)methyl)amino)methylene)benzenesulfonamide]	0.024
COc1ccc(-c2ncc(CN/C(N)=N/S(=O)(=O)c3ccccc3)cc2-c2ccc(Cl)cc2)cc1 [Compound of Example 6, N-(amino(((5-(4-chlorophenyl)-6-(4-methoxyphenyl)pyridin-3-yl)methyl)amino)methylene)benzenesulfonamide]	0.505
CN(C)C(=O)/N=C(\N)NCc1cnc(-c2ccc(Cl)cc2)c(-c2ccc(Cl)cc2)c1 [Compound of Example 79, 3-(amino(((5,6-bis(4-chlorophenyl)pyridin-3-yl)methyl)amino)methylene)-1,1-dimethylurea]	1.88
N/C(=N\S(=O)(=O)c1ccccc1)NCc1cnc(-c2ccccc2)c(-c2ccc(C(F)(F)F)cc2)c1 [Compound of Example 92, N-(amino(((6-phenyl-5-(4-(trifluoromethyl)phenyl)pyridin-3-yl)methyl)amino)methylene)benzenesulfonamide]	1.04
N/C(=N\C(=O)c1ccsc1)NCc1cnc(-c2ccc(Cl)cc2)c(-c2ccc(Cl)cc2)c1 [Compound of Example 68, N-(amino(((5,6-bis(4-chlorophenyl)pyridin-3-yl)methyl)amino)methylene)thiophene-3-carboxamide]	0.57
N/C(=N\C(=O)c1ccc(C(F)(F)F)cc1)NCc1cnc(-c2ccc(Cl)cc2)c(-c2ccc(Cl)cc2)c1 [Compound of Example 77, N-(amino(((5,6-bis(4-chlorophenyl)pyridin-3-yl)methyl)amino)methylene)-4-trifluoromethylbenzamide]	0.817
N/C(=N\C(=O)C1CC1)NCc1cnc(-c2ccc(Cl)cc2)c(-c2ccc(Cl)cc2)c1 [Compound of Example 71, N-(amino(((5,6-bis(4-chlorophenyl)pyridin-3-yl)methyl)amino)methylene)cyclopropanecarboxamide]	0.565
COc1ccc(-c2cc(CN/C(N)=N/S(=O)(=O)c3ccccc3)cnc2-c2ccc(Cl)cc2)cc1F [Compound of Example 37, N-(amino(((6-(4-chlorophenyl)-5-(3-fluoro-4-methoxyphenyl)pyridin-3-yl)methyl)amino)methylene)benzenesulfonamide]	1.27
N/C(=N\S(=O)(=O)c1ccccc1)NCc1cnc(-c2cccc(F)c2)c(-c2ccc(Cl)cc2)c1 [Compound of Example 9, N-(amino(((5-(4-chlorophenyl)-6-(3-fluorophenyl)pyridin-3-yl)methyl)amino)methylene)benzenesulfonamide]	1.71
N/C(=N\C(=O)CCc1ccccc1)NCc1cnc(-c2ccc(Cl)cc2)c(-c2ccc(Cl)cc2)c1 [Compound of Example 74, N-(amino(((5,6-bis(4-chlorophenyl)pyridin-3-yl)methyl)amino)methylene)-3-phenylpropanamide]	0.296
N/C(=N\S(=O)(=O)c1cccs1)NCc1cnc(-c2ccc(Cl)cc2)c(-c2ccc(Cl)cc2)c1 [Compound of Example 29, N-(amino(((5,6-bis(4-chlorophenyl)pyridin-3-yl)methyl)amino)methylene)thiophene-2-sulfonamide]	0.1
N/C(=N\S(=O)(=O)c1cc2ccccc2s1)NCc1cnc(-c2ccc(Cl)cc2)c(-c2ccc(Cl)cc2)c1 [Compound of Example 55, N-(amino(((5,6-bis(4-chlorophenyl)pyridin-3-yl)methyl)amino)methylene)benzo[b]thiophene-2-sulfonamide]	0.183
CC(C)(C(=O)/N=C(\N)NCc1cnc(-c2ccc(Cl)cc2)c(-c2ccc(Cl)cc2)c1)c1ccccc1 [Compound of Example 86, N-(amino(((5,6-bis(4-chlorophenyl)pyridin-3-yl)methyl)amino)methylene)-2-methyl-2-phenylpropanamide]	0.88
N/C(=N\S(=O)(=O)c1ccccc1)NCc1ncc(-c2ccc(Cl)cc2)c(-c2ccc(Cl)cc2)n1 [Compound of Example 87, N-(amino(((4,5-bis(4-chlorophenyl)pyrimidin-2-yl)methyl)amino)methylene)benzenesulfonamide]	0.072
COCC(=O)/N=C(\N)NCc1cnc(-c2ccc(Cl)cc2)c(-c2ccc(Cl)cc2)c1 [Compound of Example 63, N-(amino(((5,6-bis(4-chlorophenyl)pyridin-3-yl)methyl)amino)methylene)-2-methoxyacetamide]	0.64
N/C(=N\S(=O)(=O)c1ccccc1)NCc1cnc(-c2cccc(Cl)c2)c(-c2ccc(Cl)cc2)c1 [Compound of Example 4, N-(amino(((6-(3-chlorophenyl)-5-(4-chlorophenyl)pyridin-3-yl)methyl)amino)methylene)benzenesulfonamide]	1.4
